# Results: patent US9714239B2, “N-phenyl-lactam derivatives capable of stimulating neurogenesis and their use in the treatment of neurological disorders” (Hoffmann-La Roche Inc., priority 2014, dated 2017)
# Test system: human embryonic stem cell derived neural stem cells (NSCs)
# Test: Neurogenesis assay: neural stem cell proliferation assay
# Conditions: 96 h, compound concentration at which 150% activity of control (100%) is reached, increase in cells based on ATP levels (CellTiterGlo), 4 days incubation, dose response 8 μM to 8 nM
# Experimental: Neural Stem Cell Proliferation Assay
# Neurogenic properties of small molecules are determined based on the proliferation of human embryonic stem cell derived neural stem cells (NSCs) which were derived via a dual smad inhibition as previously described (Chambers, S. M., et al., Highly efficient neural conversion of human ES and iPS cells by dual inhibition of SMAD signaling, Nature biotechnology, 2009 27(3): p. 275-80.).
# Compounds response is measured by the increase in cells based on ATP levels (Promega:CellTiterGlo®) after an incubation period of 4 days. NSCs are thawed and expanded over 3 passages. On the 14th day, NSCs are seeded in Polyornithin/Laminin coated 384 well plates at a cell density of 21,000 cells/cm^2 in a media volume of 38 μl.
# 4 hours after cell seeding, compound solutions are added at a volume of 2 μl. Stock solutions of the compounds (water, 5% DMSO) are diluted to obtain a dose response (11 points, dilution factor is 2), ranging from 8 μM to 8 nM. Controls are run to consistently determine the neurogenic properties of the cells:
# Negative (neutral) control is cell culture Media (final DMSO concentration: 0.25%).
# 1. cell culture Media+100 ng/ml FGF2 (final DMSO concentration: 0.1%)
# 2. cell culture Media+20 ng/ml EGF (final DMSO concentration: 0.1%)
# 3. cell culture Media+100 ng/ml Wnt3a (final DMSO concentration: 0.1%)
# After 4 days incubation at 37° C., 5% CO2, the amount of ATP per well is quantified. The ATP concentration is proportional to the cell number. ATP is quantified by using the Promega CellTiterGlo® kit. The CellTiterGlo® reagents contain a cell lysis buffer, a thermo stable luciferase (UltraGlo™ recombinant luciferase), magnesium and luciferin. Luciferin reacts with ATP producing oxyluciferin, AMP and light. The luminescence signal is proportional to the ATP content.
# The value of negative (neutral) control is determined for each assay plate by taking the average of 16 negative control wells. The neurogenic compound response is calculated for each compound as (compound/Negative Control)*100. The values of EC150 from the dose response curve are determined for each test compound. The EC150 is the compound concentration at which 150% activity of control (100%) is reached.
row,Structure (SMILES),EC (150% of control) [µM]
1,"CCC1(c2ccccc2)CCN(c2ccc(-c3cnco3)c(OC)c2)C1=O (stereo not drawn) [Example 1, 3-Ethyl-1-(3-methoxy-4-(oxazol-5-yl)phenyl)-3-phenylpyrrolidin-2-one]",3.23
2,"O=C1N(Cc2ccccc2)CCN1c1ccc(-c2ccncc2)cc1 [Example 2, 1-Benzyl-3-(4-(pyridin-4-yl)phenyl)imidazolidin-2-one]",1.04
3,"COc1cccc(C2CCN(c3ccc(-c4cnco4)c(OC)c3)C2=O)c1 (stereo not drawn) [Example 3, 1-(3-Methoxy-4-oxazol-5-yl-phenyl)-3-(3-methoxyphenyl)pyrrolidin-2-one]",0.0814
4,"COc1cc(N2CCC(c3ccccc3Cl)C2=O)ccc1-c1cnco1 (stereo not drawn) [Example 4, 3-(2-Chlorophenyl)-1-(3-methoxy-4-oxazol-5-yl-phenyl)pyrrolidin-2-one]",0.678
5,"COc1cc(N2CCCN(Cc3ccccc3)C2=O)ccc1-c1cn[nH]c1 [Example 5, 1-Benzyl-3-[3-methoxy-4-(1H-pyrazol-4-yl)phenyl]hexahydropyrimidin-2-one]",1.33
6,"COc1cc(N2CCCN(Cc3ccccc3Cl)C2=O)ccc1-c1cn[nH]c1 [Example 6, 1-[(2-Chlorophenyl)methyl]-3-[3-methoxy-4-(1H-pyrazol-4-yl)phenyl]hexahydropyrimidin-2-one]",1.99
7,"COc1cccc(CN2CCCN(c3ccc(-c4cn[nH]c4)c(OC)c3)C2=O)c1 [Example 7, 1-[(3-Methoxyphenyl)methyl]-3-[3-methoxy-4-(1H-pyrazol-4-yl)phenyl]hexahydropyrimidin-2-one]",0.114
8,"COc1cc(N2CCC(c3ccccc3)C2=O)ccc1-c1cnco1 (stereo not drawn) [Example 8, 1-(3-Methoxy-4-oxazol-5-yl-phenyl)-3-phenyl-pyrrolidin-2-one]",0.471
9,"COc1cc(N2CCN(Cc3ccccc3)C2=O)ccc1-c1cn[nH]c1 [Example 9, 1-Benzyl-3-[3-methoxy-4-(1H-pyrazol-4-yl)phenyl]imidazolidin-2-one]",0.161
10,"COc1cc(N2CCN(Cc3ccccc3Cl)C2=O)ccc1-c1cn[nH]c1 [Example 10, 1-[(2-Chlorophenyl)methyl]-3-[3-methoxy-4-(1H-pyrazol-4-yl)phenyl]imidazolidin-2-one]",0.27
11,"COc1cccc(CN2CCN(c3ccc(-c4cn[nH]c4)c(OC)c3)C2=O)c1 [Example 11, 1-[(3-Methoxyphenyl)methyl]-3-[3-methoxy-4-(1H-pyrazol-4-yl)phenyl]imidazolidin-2-one]",0.0239
12,"COc1cc(N2CCC(c3ccccc3)C2=O)ccc1-c1cn[nH]c1 (stereo not drawn) [Example 12, 1-[3-Methoxy-4-(1H-pyrazol-4-yl)phenyl]-3-phenyl-pyrrolidin-2-one]",0.0414
13,"O=C1C(c2ccccc2)CCN1c1ccc(-c2cn[nH]c2)cc1 (stereo not drawn) [Example 13, 3-Phenyl-1-[4-(1H-pyrazol-4-yl)phenyl]pyrrolidin-2-one]",0.205
14,"COc1cccc(C2CCN(c3ccc(-c4cn[nH]c4)cc3)C2=O)c1 (stereo not drawn) [Example 14, 3-(3-Methoxyphenyl)-1-[4-(1H-pyrazol-4-yl)phenyl]pyrrolidin-2-one]",0.0405
15,"O=C1C(c2ccc(Cl)cc2)CCN1c1ccc(-c2cn[nH]c2)cc1 (stereo not drawn) [Example 15, 3-(4-Chlorophenyl)-1-[4-(1H-pyrazol-4-yl)phenyl]pyrrolidin-2-one]",0.384
16,"O=C1C(c2ccc(F)cc2)CCN1c1ccc(-c2cn[nH]c2)cc1 (stereo not drawn) [Example 16, 3-(4-Fluorophenyl)-1-[4-(1H-pyrazol-4-yl)phenyl]pyrrolidin-2-one]",0.0417
17,"O=C1C(c2cccc(Cl)c2)CCN1c1ccc(-c2cn[nH]c2)cc1 (stereo not drawn) [Example 17, 3-(3-Chlorophenyl)-1-[4-(1H-pyrazol-4-yl)phenyl]pyrrolidin-2-one]",0.23
18,"COc1cc(N2CCN(Cc3cccc(Cl)c3)C2=O)ccc1-c1cn[nH]c1 [Example 18, 1-[(3-Chlorophenyl)methyl]-3-[3-methoxy-4-(1H-pyrazol-4-yl)phenyl]imidazolidin-2-one]",0.395

row,Structure (SMILES),EC (150% of control) [µM]
1,"COc1cc(N2CCN(Cc3cccc(F)c3)C2=O)ccc1-c1cn[nH]c1 [Example 19, 1-[(3-Fluorophenyl)methyl]-3-[3-methoxy-4-(1H-pyrazol-4-yl)phenyl]imidazolidin-2-one]",0.047
2,"COc1cc(N2CCN(Cc3cccc(C(F)(F)F)c3)C2=O)ccc1-c1cn[nH]c1 [Example 20, 1-[3-Methoxy-4-(1H-pyrazol-4-yl)phenyl]-3-[[3-(trifluoromethyl)phenyl]methyl]imidazolidin-2-one]",0.0086
3,"COc1cc(N2CCN(Cc3cccc(OC(F)(F)F)c3)C2=O)ccc1-c1cn[nH]c1 [Example 21, 1-[3-Methoxy-4-(1H-pyrazol-4-yl)phenyl]-3-[[3-(trifluoromethoxy)phenyl]methyl]imidazolidin-2-one]",0.0092
4,"CCOc1cccc(CN2CCN(c3ccc(-c4cn[nH]c4)c(OC)c3)C2=O)c1 [Example 22, 1-[(3-Ethoxyphenyl)methyl]-3-[3-methoxy-4-(1H-pyrazol-4-yl)phenyl]imidazolidin-2-one]",0.0739
5,"COc1cc(N2CCC(Cc3ccccc3)C2=O)ccc1-c1cn[nH]c1 (stereo not drawn) [Example 23, 3-Benzyl-1-(3-methoxy-4-(1H-pyrazol-4-yl)phenyl)pyrrolidin-2-one]",0.612
6,"COc1cccc(C2CCN(c3ccc(-c4cn[nH]c4)c(OC)c3)C2=O)c1 (stereo not drawn) [Example 24, 1-(3-Methoxy-4-(1H-pyrazol-4-yl)phenyl)-3-(3-methoxyphenyl)pyrrolidin-2-one]",0.0299
7,"COc1cc(N2CCC(c3cccc(Cl)c3)C2=O)ccc1-c1cn[nH]c1 (stereo not drawn) [Example 25, 3-(3-Chlorophenyl)-1-(3-methoxy-4-(1H-pyrazol-4-yl)phenyl)pyrrolidin-2-one]",0.0659
8,"COc1cc(N2CCC(c3cccc(F)c3)C2=O)ccc1-c1cn[nH]c1 (stereo not drawn) [Example 26, 3-(3-Fluorophenyl)-1-(3-methoxy-4-(1H-pyrazol-4-yl)phenyl)pyrrolidin-2-one]",0.0776
9,"COc1cccc(CN2CCN(c3ccc(-c4cn[nH]c4)cc3)C2=O)c1 [Example 27, 1-[(3-Methoxyphenyl)methyl]-3-[4-(1H-pyrazol-4-yl)phenyl]imidazolidin-2-one]",0.294
10,"COc1cccc(CN2CCN(c3ccc(-c4cn[nH]c4)c(C)c3)C2=O)c1 [Example 28, 1-[(3-Methoxyphenyl)methyl]-3-[3-methyl-4-(1H-pyrazol-4-yl)phenyl]imidazolidin-2-one]",1.22
11,"COc1cccc(CN2CCN(c3ccc(-c4cn[nH]c4)c(Cl)c3)C2=O)c1 [Example 29, 1-[3-Chloro-4-(1H-pyrazol-4-yl)phenyl]-3-[(3-methoxyphenyl)methyl]imidazolidin-2-one]",0.366
12,"COc1cccc(CN2CCN(c3ccc(-c4cn[nH]c4)cc3F)C2=O)c1 [Example 30, 1-[2-Fluoro-4-(1H-pyrazol-4-yl)phenyl]-3-[(3-methoxyphenyl)methyl]imidazolidin-2-one]",0.0416
13,"COc1cccc(CN2CCN(c3ccc(-c4cn[nH]c4)c(F)c3)C2=O)c1 [Example 31, 1-[3-Fluoro-4-(1H-pyrazol-4-yl)phenyl]-3-[(3-methoxyphenyl)methyl]imidazolidin-2-one]",0.0157
14,"CCOc1cc(N2CCN(Cc3cccc(OC)c3)C2=O)ccc1-c1cn[nH]c1 [Example 32, 1-[3-Ethoxy-4-(1H-pyrazol-4-yl)phenyl]-3-[(3-methoxyphenyl)methyl]imidazolidin-2-one]",0.835
15,"COc1cc(N2CCN(Cc3ccccc3F)C2=O)ccc1-c1cn[nH]c1 [Example 33, 1-[(2-Fluorophenyl)methyl]-3-[3-methoxy-4-(1H-pyrazol-4-yl)phenyl]imidazolidin-2-one]",0.225
16,"COc1cc(N2CCN(Cc3ccccc3C)C2=O)ccc1-c1cn[nH]c1 [Example 34, 1-[3-Methoxy-4-(1H-pyrazol-4-yl)phenyl]-3-(o-tolylmethyl)imidazolidin-2-one]",0.2
17,"COc1cc(N2CCN(Cc3cccc(C)c3)C2=O)ccc1-c1cn[nH]c1 [Example 35, 1-[3-Methoxy-4-(1H-pyrazol-4-yl)phenyl]-3-(m-tolylmethyl)imidazolidin-2-one]",2.65
18,"COc1cc(N2CCC(Cc3cccc(Cl)c3)C2=O)ccc1-c1cn[nH]c1 (stereo not drawn) [Example 36, 3-[(3-Chlorophenyl)methyl]-1-[3-methoxy-4-(1H-pyrazol-4-yl)phenyl]pyrrolidin-2-one]",1.65
